# Measurements taken from patent publication US12186283B2, “Bismuth-thiol compositions and methods of use” (Microbion Corporation, priority 2018, dated 2025).
# Like-named read-outs stand apart in the source and are kept apart here.
# Experiments:
# [1] = tested on: Enterococcus spp. (E. faecalis, E. faecium); assay: Broth microdilution MIC (Example 11); assay type: cell-based; details: Enterococcus faecium, VRE, E. faecium MMX 485; VRE, vanA, LevR, CipR, EryR; read-out: MIC
# [2] = tested on: beta-hemolytic streptococci (S. pyogenes, S. agalactiae); assay: Broth microdilution MIC (Example 11); assay type: cell-based, Streptococcus pyogenes, Streptococcus agalactiae; details: read-out: MIC
# [3] = tested on: Burkholderia cepacia complex; assay: Checkerboard FIC assay, BisEDT with CF agents (Example 10); assay type: cell-based, Burkholderia spp.; details: agent alone, as observed during FIC testing
# P. aeruginosa = assay: Broth microdilution MIC (Example 10)
# [4] = tested on: Burkholderia cepacia complex; assay: Broth microdilution MIC (Example 10); details: initial MIC testing
structure (smiles),measurement,setting,value
"C[C@H]1COc2c(N3CCN(C)CC3)c(F)cc3c(=O)c(C(=O)O)cn1c23 [Levofloxacin, reference compound]",MIC,[1],> 64 µg/mL
same,MIC,"[2]; S. agalactiae MMX 3741, ERY^R CC^R",0.5 µg/mL
same,MIC,"[2]; S. agalactiae MMX 3743, ERY^R CC^R",1 µg/mL
same,MIC,"[2]; S. agalactiae MMX 4077, ERY^R CC^R",0.5 µg/mL
same,MIC,"[2]; S. agalactiae MMX 4079, ERY^R CC^R Pen^R MEM^R",1 µg/mL
same,MIC,"[2]; S. agalactiae MMX 4086, ERY^R CC^R",0.5 µg/mL
C[C@H]1[C@H](NC(=O)/C(=N\OC(C)(C)C(=O)O)c2csc(N)n2)C(=O)N1S(=O)(=O)O [AZT],MIC,[3]; B. cenocepacia isolate 0548,64 µg/mL
same,MIC,[3]; B. cenocepacia isolate 0813,32 µg/mL
same,MIC,[3]; B. multivorans isolate 1795,16 µg/mL
same,MIC,"P. aeruginosa; P. aeruginosa isolate 103 (ATCC 25922), QC strain, initial MIC testing",8 µg/mL
same,MIC,"P. aeruginosa; P. aeruginosa isolate 103 (ATCC 25922), during FIC testing, each agent tested alone for QC, one replicate",8 µg/mL
same,MIC,"P. aeruginosa; P. aeruginosa isolate 1497 (TOB-R, AMK-R, CIP-I, AZT-R, COL-R), initial MIC testing",32 µg/mL
same,MIC,"P. aeruginosa; P. aeruginosa isolate 1530 (TOB-R, AMK-R, CIP-R), initial MIC testing",4 µg/mL
same,MIC,"P. aeruginosa; P. aeruginosa isolate 1553 (TOB-R, AMK-R, CIP-R), initial MIC testing",8 µg/mL
same,MIC,"P. aeruginosa; P. aeruginosa isolate 6322 (MEM-R, TOB-R, AMK-R, CIP-R, AZT-R), initial MIC testing",64 µg/mL
same,MIC,"P. aeruginosa; P. aeruginosa isolate 6977 (MEM-I, TOB-R, CIP-R, AZT-I), initial MIC testing",16 µg/mL
same,MIC,"P. aeruginosa; P. aeruginosa isolate 7745 (MEM-R, CIP-R, AZT-R), initial MIC testing",32 µg/mL
same,MIC,"P. aeruginosa; P. aeruginosa isolate 7754 (MEM-R, TOB-R, CIP-R, AZT-I), initial MIC testing",16 µg/mL
same,MIC,"P. aeruginosa; P. aeruginosa isolate 7762 (MEM-I, CIP-I), initial MIC testing",8 µg/mL
same,MIC,"P. aeruginosa; P. aeruginosa isolate 7871 (MEM-R, AZT-I), initial MIC testing",16 µg/mL
same,MIC,"P. aeruginosa; P. aeruginosa isolate 7874, initial MIC testing",4 µg/mL
same,MIC,"P. aeruginosa; P. aeruginosa isolate 7886 (MEM-R, CIP-R, AZT-R), initial MIC testing",64 µg/mL
same,MIC,"P. aeruginosa; P. aeruginosa isolate 8797 (MEM-R, TOB-R, AMK-R, CIP-R, AZT-R, COL-R), initial MIC testing",>256 µg/mL
same,MIC,"P. aeruginosa; P. aeruginosa isolate 8798 (MEM-R, TOB-R, AMK-R, CIP-R, AZT-R, COL-R), initial MIC testing",256 µg/mL
same,MIC,"P. aeruginosa; P. aeruginosa isolate 9108 (CIP-R, AZT-I), initial MIC testing",16 µg/mL
same,MIC,[4]; B. cenocepacia isolate 0813 (CPI-I),8 µg/mL
same,MIC,[4]; B. cenocepacia isolate 1631,32 µg/mL
same,MIC,[4]; B. cenocepacia isolate 1783,32 µg/mL
same,MIC,[4]; B. cenocepacia isolate 8555,256 µg/mL
same,MIC,[4]; B. cepacia isolate 0546,16 µg/mL
same,MIC,[4]; B. cepacia isolate 0547,16 µg/mL
same,MIC,[4]; B. cepacia isolate 1793,128 µg/mL
same,MIC,[4]; B. cepacia isolate 1794,32 µg/mL
same,MIC,[4]; B. cepacia isolate 9040,32 µg/mL
same,MIC,[4]; B. multivorans isolate 1580 (CIP-R),64 µg/mL
same,MIC,[4]; B. multivorans isolate 1791,4 µg/mL
same,MIC,"[4]; B. multivorans isolate 1795 (MEM-I, CIP-R)",4 µg/mL
same,MIC,[4]; B. multivorans isolate 5665 (CIP-I),4 µg/mL
same,MIC,[4]; B. multivorans isolate 8952 (CIP-I),8 µg/mL
